Key:
[1] = Dermal tolerability in rats; assay type: in vivo; settings: female rats
Method: Female rats were administered either vehicle or one of Cmpds IVa, IIIb, or IVb daily for 8 days. The administered dose was 3 mg/kg/day, at a concentration of 3 mg/mL. Observed data were body weight, viability, food consumption, and dermal observation (skin reaction grading), as known in the art. The vehicle was Formulation A. See Table 1 above.

[2] = Partitioning in artificial sebum; assay type: physicochemical
Method: Compounds bimatoprost, Cmpd IVa, and Cmpd IIIb were added to aqueous solution (1 mL, 2-20 ug/mL), with and without 1-20 mg artificial sebum. Samples were shaken for 16 hr at 37° C. Samples were then centrifuged (8000 RPM) for 15 min at room temperature, prior to collection of the aqueous solution. Samples were analyzed for concentration of compound without artificial sebum (i.e., Co) and with artificial sebum (i.e., Ci) by mass spectroscopy. Artificial sebum and water partition coefficient (Ksebum) was expressed as the concentration of drug in 1 g of artificial sebum divided by the concentration of drug in 1 g of aqueous solution, and was calculated as Ksebum=(Co−Ci)Waqueous/(Ci×Wsebum) (Eqn. 1), where W represents weight.
Artificial sebum was prepared as follows: 15% (w/w) squalene, 15% spermaceti, 10% coconut oil, 1.5% oleic acid, 5% palmitic acid, 2.4% cholesterol oleate, 10% paraffin wax, 10% olive oil, 25% cottonseed oil, 5% palmitoleic acid, 1.2% cholesterol. The melting point of the semi-liquid was 37° C.

[3] = dermal 3 mg/kg/day daily for 8 days, Formulation A

phase in which the majority of compound remains ([2]; artificial sebum / aqueous solution): remain in the aqueous phase
Ave. Ksebum (artificial sebum and water partition coefficient) ([2]; n = 4, 16 hr at 37° C.): 5.1
SMILES: CCNC(=O)CCC/C=C\C[C@@H]1[C@@H](/C=C/[C@H](CCc2ccccc2)OC(C)=O)[C@H](O)C[C@@H]1O [Cmpd IVa, 15-acetyl-bimatoprost]
change in food consumption and body weight gain (in words) ([1]; 3 mg/kg/day daily for 8 days): no significant change in food consumption or body weight gain
dermal observation: signs of irritation ([1]; 3 mg/kg/day, days 2-4): minimal and transient signs of irritation
Body Weight Gain (g) Mean ± SD [1, 3]: 9.0 ± 3.0 g
Food Consumption (g) Mean ± SD [1, 3]: 21.14 ± 1.08 g
